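Protocol summary: plate cells (96-well), add compound at 5 concentrations, incubate 48 h, interpolate endpoints linearly. Abbreviation: GI50, concentration required for 50% inhibition of growth. TGI: concentration producing complete growth inhibition.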
Legend:
Experiment in all cases: NCI anticancer screen, dose series, 48 h
RXF 393 renal = tested on: RXF 393 renal
SK-MEL-2 melanoma = tested on: SK-MEL-2 melanoma
NCI-H522 lung = tested on: NCI-H522 lung
EKVX NSCLC = tested on: EKVX NSCLC
LOX IMVI melanoma = tested on: LOX IMVI melanoma
BT-549 breast = tested on: BT-549 breast
NCI-H226 lung = tested on: NCI-H226 lung
HCT-116 colon = tested on: HCT-116 colon
MDA-MB-231 breast = tested on: MDA-MB-231 breast
HS 578T breast = tested on: HS 578T breast
CCRF-CEM leukemia = tested on: CCRF-CEM leukemia
SF-268 CNS = tested on: SF-268 CNS
NCI-H23 lung = tested on: NCI-H23 lung
IGROV1 ovarian = tested on: IGROV1 ovarian
MOLT-4 leukemia = tested on: MOLT-4 leukemia
T-47D breast = tested on: T-47D breast
MDA-MB-435 = tested on: MDA-MB-435
PC-3 prostate = tested on: PC-3 prostate
SR leukemia = tested on: SR leukemia
SNB-19 CNS = tested on: SNB-19 CNS
NCI/ADR-RES ovarian = tested on: NCI/ADR-RES ovarian
OVCAR-4 ovarian = tested on: OVCAR-4 ovarian
OVCAR-3 ovarian = tested on: OVCAR-3 ovarian
HL-60(TB) leukemia = tested on: HL-60(TB) leukemia
UACC-257 melanoma = tested on: UACC-257 melanoma
SF-295 CNS = tested on: SF-295 CNS
SF-539 CNS = tested on: SF-539 CNS
SW-620 colon = tested on: SW-620 colon
ACHN renal = tested on: ACHN renal
UO-31 renal = tested on: UO-31 renal
U251 CNS = tested on: U251 CNS
HOP-62 NSCLC = tested on: HOP-62 NSCLC
786-0 renal = tested on: 786-0 renal
NCI-H460 lung = tested on: NCI-H460 lung
CAKI-1 renal = tested on: CAKI-1 renal
UACC-62 melanoma = tested on: UACC-62 melanoma
HCT-15 colon = tested on: HCT-15 colon
HCC-2998 colon = tested on: HCC-2998 colon
KM12 colon = tested on: KM12 colon
SK-MEL-5 melanoma = tested on: SK-MEL-5 melanoma
DU-145 prostate = tested on: DU-145 prostate
HT29 colon = tested on: HT29 colon
TK-10 renal = tested on: TK-10 renal
SK-MEL-28 melanoma = tested on: SK-MEL-28 melanoma
OVCAR-5 ovarian = tested on: OVCAR-5 ovarian
COLO 205 colon = tested on: COLO 205 colon
K-562 leukemia = tested on: K-562 leukemia
SNB-75 CNS = tested on: SNB-75 CNS
A549 NSCLC = tested on: A549 NSCLC
MCF7 breast = tested on: MCF7 breast
M14 melanoma = tested on: M14 melanoma
SN12C renal = tested on: SN12C renal
SK-OV-3 ovarian = tested on: SK-OV-3 ovarian
A498 renal = tested on: A498 renal
HOP-92 NSCLC = tested on: HOP-92 NSCLC
OVCAR-8 ovarian = tested on: OVCAR-8 ovarian
RPMI-8226 leukemia = tested on: RPMI-8226 leukemia
MALME-3M melanoma = tested on: MALME-3M melanoma

## Cc1ccc(S(=O)(=O)N2CCc3ccc(O)c4c3C2Cc2ccc3c(c2-4)OCO3)cc1 (stereo unspecified)
RXF 393 renal
  GI50: 0.853 µM
  TGI: 5.96 µM
SK-MEL-2 melanoma
  GI50: 1.34 µM
  TGI: 7.33 µM
NCI-H522 lung
  GI50: 0.393 µM
  TGI: 2.08 µM
EKVX NSCLC
  GI50: 4.34 µM
  TGI: > 100 µM
LOX IMVI melanoma
  GI50: 0.635 µM
  TGI: 4.68 µM
BT-549 breast
  GI50: 0.822 µM
  TGI: 12.5 µM
NCI-H226 lung
  GI50: 4.71 µM
  TGI: 34.3 µM
HCT-116 colon
  GI50: 0.451 µM
  TGI: 10.6 µM
MDA-MB-231 breast
  GI50: 1.47 µM
  TGI: 9.48 µM
HS 578T breast
  GI50: 1.06 µM
  TGI: > 50.6 µM
CCRF-CEM leukemia
  GI50: 0.847 µM
  TGI: > 27.6 µM
SF-268 CNS
  GI50: 1.01 µM
  TGI: 23.3 µM
NCI-H23 lung
  GI50: 0.592 µM
  TGI: 5.25 µM
IGROV1 ovarian
  GI50: 0.708 µM
  TGI: 14.2 µM
MOLT-4 leukemia
  GI50: 2.42 µM
  TGI: 20.3 µM
T-47D breast
  GI50: 0.968 µM
  TGI: 51 µM
MDA-MB-435
  GI50: 0.216 µM
  TGI: 0.539 µM
PC-3 prostate
  GI50: 0.808 µM
  TGI: 19.5 µM
SR leukemia
  GI50: 0.352 µM
  TGI: 5.98 µM
SNB-19 CNS
  GI50: 1.4 µM
  TGI: > 100 µM
NCI/ADR-RES ovarian
  GI50: 0.348 µM
  TGI: 2.08 µM
OVCAR-4 ovarian
  GI50: 0.934 µM
  TGI: 33.3 µM
OVCAR-3 ovarian
  GI50: 0.286 µM
  TGI: 0.707 µM
HL-60(TB) leukemia
  GI50: 0.398 µM
  TGI: 5.56 µM
UACC-257 melanoma
  GI50: 0.656 µM
  TGI: 18.1 µM
SF-295 CNS
  GI50: 1.38 µM
  TGI: 12 µM
SF-539 CNS
  GI50: 1.02 µM
  TGI: 5.26 µM
SW-620 colon
  GI50: 0.429 µM
  TGI: > 42.9 µM
ACHN renal
  GI50: 0.769 µM
  TGI: > 60.8 µM
UO-31 renal
  GI50: 0.904 µM
  TGI: 11.8 µM
U251 CNS
  GI50: 0.464 µM
  TGI: 5.92 µM
HOP-62 NSCLC
  GI50: 1.89 µM
  TGI: 27.9 µM
786-0 renal
  GI50: 0.894 µM
  TGI: 20.8 µM
NCI-H460 lung
  GI50: 0.539 µM
  TGI: 7.53 µM
CAKI-1 renal
  GI50: 0.737 µM
  TGI: 22.6 µM
UACC-62 melanoma
  GI50: 0.577 µM
  TGI: 9.41 µM
HCT-15 colon
  GI50: 0.583 µM
  TGI: > 35.1 µM
HCC-2998 colon
  GI50: 1.56 µM
  TGI: 5.24 µM
KM12 colon
  GI50: 0.456 µM
  TGI: 3.66 µM
SK-MEL-5 melanoma
  GI50: 0.486 µM
  TGI: 2.18 µM
DU-145 prostate
  GI50: 1.27 µM
  TGI: 8.63 µM
HT29 colon
  GI50: 2.79 µM
  TGI: 7.25 µM
TK-10 renal
  GI50: 3.48 µM
  TGI: 29.2 µM
SK-MEL-28 melanoma
  GI50: 0.668 µM
  TGI: 18.6 µM
OVCAR-5 ovarian
  GI50: 3.19 µM
  TGI: 45.8 µM
COLO 205 colon
  GI50: 5.08 µM
  TGI: 18.7 µM
K-562 leukemia
  GI50: 0.455 µM
  TGI: > 100 µM
SNB-75 CNS
  GI50: 0.288 µM
  TGI: 9.59 µM
A549 NSCLC
  GI50: 0.808 µM
  TGI: 12.4 µM
MCF7 breast
  GI50: 0.317 µM
  TGI: 10.2 µM
M14 melanoma
  GI50: 0.511 µM
  TGI: 3.86 µM
SN12C renal
  GI50: 2.32 µM
  TGI: > 40 µM
SK-OV-3 ovarian
  GI50: 0.731 µM
  TGI: 8.09 µM
A498 renal
  GI50: 0.898 µM
  TGI: 7.09 µM
HOP-92 NSCLC
  GI50: 0.417 µM
  TGI: 3.51 µM
OVCAR-8 ovarian
  GI50: 1.41 µM
  TGI: 20.7 µM
RPMI-8226 leukemia
  GI50: 0.959 µM
  TGI: 5.08 µM
MALME-3M melanoma
  GI50: 0.775 µM
  TGI: 30.4 µM

Source: PubChem BioAssay (NCI)
